According to patent US20050054615A1, “Calmodulin independent activation of nitric oxide synthase” (Rensselaer Polytechnic Institute, priority 2002, published 2005):
Entries after “also recorded” stand apart in the source; their conditions may differ. Where two headings read alike, the source gives them in different places.

Assays:
[1] = tested on: nNOS; test: Nitrite production (Griess) of wild type and mutant nNOS enzymes; type: biochemical, rat; settings: activity of the enzyme preparation, based on heme content
Description: Expression and purification of wild type and mutant bovine eNOS and rat nNOS. Expression and purification of bovine eNOS and rat nNOS were performed using procedures similar to those previously described (Martasek, P.,et al., (1996) Biochem Biophys Res Commun. 219(2); 359-65). Transformed cells were broken with a French press, and after centrifugation to remove cell debris the supernatant was loaded on a 2′5′ADP affinity column, washed, and eluted with 2′AMP as described (id). High purity preparations can be obtained with a size exclusion step; we used a Superose 6 HR 10/30 column (Pharmacia Biotech AB, Uppsala, Sweden), flow rate 0.4 mL/min, buffer composition −50 mM Tris-HCl, pH 7.5, 0.1 mM EDTA, 1 mM-mercaptoethanol, 100 mM NaCl, 10% glycerol (vol/vol). During the purification procedure BH4 or L-arginine were added after elution from the affinity column. Enzyme sample concentrations were determined on the basis of heme concentration, except in heme free preparations, where the flavin concentration was measured. UV-visible absorbance spectra were recorded on an Aminco DW-2000 spectrophotometer.
(§1) Nitric Oxide production was assayed using the Griess assay as adapted for microtiter plates (Gross, S. S. (1996) Methods Enzymol. 268:159-68); calcium dependence was measured using EDTA as a Ca+2 buffer system. […] NADPH-dependent cytochrome c reduction was measured spectrophotometrically as described by McMillan et al (McMillan, K., et al., (1992) Proc Nat. Acad. Sci. U.S.A. 89, 11141-11145), adapted to 96-well plate microtiter plates. In each well, the […] reaction mixture contained 50 mM Na+ TRIS buffer, pH 7.5, 50 uM EDTA, 50 uM NADPH, 50 uM horse heart cytochrome c, and ˜10 nM of nNOS. Cytochrome c reduction was monitored at 550 nm (ε=2.1×104/M). In Cam/Ca+2 dependence studies, 0.75 uM CaCl2 and […] calmodulin were added to reaction mixtures. Assays were performed on a SpectraMAX plate reader (Molecular Devices).

[2] = tested on: cNOS; test: Activation of constitutive NOS by nucleotide ligands; type: biochemical
Description: The effect of 2′AMP on the optical spectra of reductase cofactors in eNOS was also examined for eNOS as isolated and reduced with 1 mM NADPH. eNOS only, eNOS NADPH, eNOS NADPH with 2′AMP, eNOS NADPH with 2′AMP and CAM, and NADPH 2′AMP were compared.
as §1

[3] = target: T1, eNOS (Bos taurus, UniProt P29473); test: Griess assay of NO production by eNOS; type: biochemical, bovine; settings: for eNOS activity relative to eNOS activated by CaM alone: initial concentrations of NADPH and 2′AMP equal, presence of calcium/CaM
T1 construct: further column purification with gel filtration or anion exchange produces very pure full length NOS; made in house; host or cells: E. coli BL21 (pCWori+)
Description: as §1
Titration of eNOS with 2′AMP in the presence of ‘fully’ activating levels of Ca+2/CaM was performed using a Greiss assay (see, e.g., the Griess Reagent System, Promega Corporation, Madison, Wis.; and manufacturer's instructions for use). Calcium stoichometries were between two and four. The titration produced an additional activation corresponding to an apparent Kd of ˜1 mM. […] In the most widely used assay systems eNOS is 2-3 fold hyperactivated by 2′AMP (Greiss assay). Enhanced levels of cytochrome c reduction (2-5 fold) can also be observed in both eNOS and nNOS.

[4] = target: T2, eNOS (Bos taurus, UniProt P29473); test: NADPH-dependent cytochrome c reduction (electron transfer), eNOS; type: biochemical, bovine
T2 construct: further column purification with gel filtration or anion exchange produces very pure full length NOS; made in house; host or cells: E. coli BL21 (pCWori+)
T2 sequence (P29473 1-1205): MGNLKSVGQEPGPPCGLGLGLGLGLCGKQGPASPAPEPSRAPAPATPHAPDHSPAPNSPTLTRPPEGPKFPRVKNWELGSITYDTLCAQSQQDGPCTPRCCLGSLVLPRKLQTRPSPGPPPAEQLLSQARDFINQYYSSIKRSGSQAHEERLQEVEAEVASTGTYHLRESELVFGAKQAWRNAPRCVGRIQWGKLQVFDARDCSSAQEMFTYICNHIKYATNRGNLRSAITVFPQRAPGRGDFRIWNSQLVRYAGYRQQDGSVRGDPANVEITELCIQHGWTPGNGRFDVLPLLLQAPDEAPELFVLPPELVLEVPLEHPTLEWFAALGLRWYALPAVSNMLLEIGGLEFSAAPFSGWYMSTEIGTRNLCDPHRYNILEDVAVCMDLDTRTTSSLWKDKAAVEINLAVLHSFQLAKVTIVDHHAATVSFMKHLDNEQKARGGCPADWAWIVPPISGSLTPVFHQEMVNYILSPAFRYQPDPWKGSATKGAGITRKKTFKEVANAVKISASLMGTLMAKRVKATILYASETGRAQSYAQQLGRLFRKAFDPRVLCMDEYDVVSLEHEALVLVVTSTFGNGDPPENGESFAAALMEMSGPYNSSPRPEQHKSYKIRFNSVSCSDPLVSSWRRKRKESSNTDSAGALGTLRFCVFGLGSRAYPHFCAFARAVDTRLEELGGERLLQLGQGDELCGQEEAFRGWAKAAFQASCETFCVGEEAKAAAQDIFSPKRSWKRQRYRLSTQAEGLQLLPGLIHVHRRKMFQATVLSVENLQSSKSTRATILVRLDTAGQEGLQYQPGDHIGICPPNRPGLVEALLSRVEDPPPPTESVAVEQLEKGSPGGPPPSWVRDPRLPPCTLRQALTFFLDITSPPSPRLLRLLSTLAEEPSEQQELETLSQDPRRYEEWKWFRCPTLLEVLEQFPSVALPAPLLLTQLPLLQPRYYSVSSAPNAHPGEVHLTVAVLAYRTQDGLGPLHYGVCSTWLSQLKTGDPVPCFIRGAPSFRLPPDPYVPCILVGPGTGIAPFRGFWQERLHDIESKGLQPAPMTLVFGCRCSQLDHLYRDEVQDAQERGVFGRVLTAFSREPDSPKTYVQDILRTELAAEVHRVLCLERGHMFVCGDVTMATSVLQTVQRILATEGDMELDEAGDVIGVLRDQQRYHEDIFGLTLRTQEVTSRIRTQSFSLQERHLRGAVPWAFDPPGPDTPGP

[5] = target: T3, nNOS (Rattus norvegicus, UniProt P29476); test: NADPH-dependent cytochrome c reduction (electron transfer), nNOS; type: biochemical
T3 construct: further column purification with gel filtration or anion exchange produces very pure full length NOS; made in house; host or cells: E. coli BL21 (pCWori+)
T3 sequence (P29476 whole entry): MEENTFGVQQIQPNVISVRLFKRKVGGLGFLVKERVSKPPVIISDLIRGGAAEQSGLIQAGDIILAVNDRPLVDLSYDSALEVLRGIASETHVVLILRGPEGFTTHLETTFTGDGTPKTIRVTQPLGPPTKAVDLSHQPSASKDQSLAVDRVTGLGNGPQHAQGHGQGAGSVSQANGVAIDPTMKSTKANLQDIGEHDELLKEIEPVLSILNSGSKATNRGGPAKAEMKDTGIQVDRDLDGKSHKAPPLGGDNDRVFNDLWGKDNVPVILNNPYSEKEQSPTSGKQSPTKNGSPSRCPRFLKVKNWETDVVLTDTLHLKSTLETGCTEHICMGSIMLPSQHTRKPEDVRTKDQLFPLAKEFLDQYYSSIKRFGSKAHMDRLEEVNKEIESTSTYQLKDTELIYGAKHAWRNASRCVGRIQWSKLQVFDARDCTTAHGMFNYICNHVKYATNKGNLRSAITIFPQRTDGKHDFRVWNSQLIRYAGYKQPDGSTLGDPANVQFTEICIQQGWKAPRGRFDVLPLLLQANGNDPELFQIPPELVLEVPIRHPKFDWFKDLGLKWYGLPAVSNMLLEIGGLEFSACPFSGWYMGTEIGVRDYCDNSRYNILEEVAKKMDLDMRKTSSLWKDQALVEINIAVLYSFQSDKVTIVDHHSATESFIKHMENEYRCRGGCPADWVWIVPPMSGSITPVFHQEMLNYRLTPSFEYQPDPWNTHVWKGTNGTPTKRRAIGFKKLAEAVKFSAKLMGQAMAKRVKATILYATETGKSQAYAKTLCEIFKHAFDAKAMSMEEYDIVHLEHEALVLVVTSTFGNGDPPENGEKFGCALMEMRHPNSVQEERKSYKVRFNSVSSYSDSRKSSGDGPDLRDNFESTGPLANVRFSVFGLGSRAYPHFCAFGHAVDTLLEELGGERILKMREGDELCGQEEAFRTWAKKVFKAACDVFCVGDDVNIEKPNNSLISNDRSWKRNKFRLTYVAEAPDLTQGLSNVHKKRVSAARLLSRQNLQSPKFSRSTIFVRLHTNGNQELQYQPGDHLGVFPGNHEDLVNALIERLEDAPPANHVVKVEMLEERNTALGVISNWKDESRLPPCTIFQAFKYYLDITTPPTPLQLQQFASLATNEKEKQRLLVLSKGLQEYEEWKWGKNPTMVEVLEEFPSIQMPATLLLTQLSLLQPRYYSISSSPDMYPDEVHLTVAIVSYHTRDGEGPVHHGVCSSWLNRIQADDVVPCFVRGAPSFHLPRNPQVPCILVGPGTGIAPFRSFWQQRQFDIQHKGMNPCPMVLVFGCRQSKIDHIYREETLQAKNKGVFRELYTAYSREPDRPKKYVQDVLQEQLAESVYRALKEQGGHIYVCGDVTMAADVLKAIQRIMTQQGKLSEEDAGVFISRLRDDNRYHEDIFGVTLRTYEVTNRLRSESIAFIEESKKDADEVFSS

[6] = target: T4, iNOS (Mus musculus, UniProt P29477); test: Effect of NADPH analogs on iNOS electron transfer; type: biochemical, murine; settings: Tris buffer, absence of calmodulin
T4 construct: made in house; host or cells: E. coli
T4 sequence (P29477 1-1144): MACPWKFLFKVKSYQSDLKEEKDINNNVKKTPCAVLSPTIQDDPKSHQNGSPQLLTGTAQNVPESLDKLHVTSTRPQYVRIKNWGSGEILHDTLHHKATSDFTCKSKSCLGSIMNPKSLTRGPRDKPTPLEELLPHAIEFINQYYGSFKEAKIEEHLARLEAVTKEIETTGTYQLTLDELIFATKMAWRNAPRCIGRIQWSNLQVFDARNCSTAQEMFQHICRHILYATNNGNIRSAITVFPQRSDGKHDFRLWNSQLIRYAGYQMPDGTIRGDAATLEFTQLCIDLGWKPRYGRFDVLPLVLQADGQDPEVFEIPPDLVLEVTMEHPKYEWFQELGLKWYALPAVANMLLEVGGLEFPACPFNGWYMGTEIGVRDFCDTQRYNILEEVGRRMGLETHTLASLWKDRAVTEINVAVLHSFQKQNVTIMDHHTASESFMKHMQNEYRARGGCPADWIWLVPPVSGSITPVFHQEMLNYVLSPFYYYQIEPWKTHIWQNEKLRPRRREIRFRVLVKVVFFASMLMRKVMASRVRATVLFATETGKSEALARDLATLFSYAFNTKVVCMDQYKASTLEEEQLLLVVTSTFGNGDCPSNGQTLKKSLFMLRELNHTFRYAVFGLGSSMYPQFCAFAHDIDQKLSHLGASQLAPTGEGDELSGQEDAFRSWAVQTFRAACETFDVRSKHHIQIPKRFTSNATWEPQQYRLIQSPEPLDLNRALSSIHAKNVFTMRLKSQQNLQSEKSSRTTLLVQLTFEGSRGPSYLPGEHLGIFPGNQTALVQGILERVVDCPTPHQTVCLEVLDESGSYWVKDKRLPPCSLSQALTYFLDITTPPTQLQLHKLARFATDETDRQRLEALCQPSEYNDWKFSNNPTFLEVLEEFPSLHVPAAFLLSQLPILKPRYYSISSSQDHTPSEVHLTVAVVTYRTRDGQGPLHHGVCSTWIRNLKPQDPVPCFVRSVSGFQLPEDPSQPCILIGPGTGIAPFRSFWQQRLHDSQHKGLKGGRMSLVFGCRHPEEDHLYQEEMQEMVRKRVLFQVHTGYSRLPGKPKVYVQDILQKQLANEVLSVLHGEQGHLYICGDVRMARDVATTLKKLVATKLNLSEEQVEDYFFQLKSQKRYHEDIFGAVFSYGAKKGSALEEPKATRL

[7] = comparison of nucleotide ligands

“wild-type nNOS: wild type rat neuronal nitric oxide synthase expressed in E. coli” showed a Nitrite production [1] of 292.2 nmoles/min/mg NOS.
For Nc1nc2c(ncn2[C@@H]2O[C@H](COP(=O)(O)OP(=O)(O)O)[C@@H](O)[C@H]2O)c(=O)[nH]1 [GDP], the “function as NOS activator” value [2, 7] was “did not function as activators”.
With Nc1ncnc2c1ncn2[C@@H]1O[C@H](CO)[C@@H](O)[C@H]1OP(=O)(O)O [2′AMP] the “hyperactivation of eNOS” value ([3]; Good's buffer systems (e.g., HEPES or MOPS), with Ca+2/CaM) was 2-3 fold, the “eNOS activity relative to eNOS activated by CaM alone” value [3] was 2-3 times and the “eNOS activity relative to eNOS activated by CaM alone” value ([3]; listed as 2′ AMP) was 3-5 times. The “hyperactivation of eNOS” value ([3]; most widely used assay systems, Greiss assay) was 2-3 fold, the Kd ([3]; titration of eNOS in the presence of 'fully' activating levels of Ca+2/CaM, plate reader Greiss assay, read-out: apparent Kd of additional activation) was about 1000 µM and the “enhanced level (activation) of cytochrome c reduction” value ([4]; eNOS) was 2-5 fold. The “enhanced level (activation) of cytochrome c reduction” value ([5]; nNOS) was 2-5 fold and the “activation of cNOS in the absence of calmodulin” value ([2]; absence of calmodulin, particularly in Tris buffer) was “activated cNOS in the absence of calmodulin”.
In the case of Nc1ncnc2c1ncn2[C@@H]1O[C@@H]2COP(=O)(O)O[C@H]2[C@H]1O [Cyclic AMP], the “function as NOS activator” value [2] is reported as “did not function as activators”.
In the case of Nc1nc2c(ncn2[C@@H]2O[C@H](COP(=O)(O)OP(=O)(O)OP(=O)(O)O)[C@@H](O)[C@H]2O)c(=O)[nH]1 [GTP], the “function as NOS activator” value [2, 7] is reported as “did not function as activators”.
In the case of Nc1nc2c(ncn2[C@@H]2O[C@@H]3COP(=O)(O)O[C@H]3[C@H]2O)c(=O)[nH]1 [cyclic GMP], the “function as NOS activator” value [2, 7] is reported as “did not function as activators”.
In the case of “G1074D mutant: rat nNOS small insertion mutant, Gly 1074 replaced by Asp”, the Nitrite production [1] is reported as 179.8 nmoles/min/mg NOS.
Nc1ncnc2c1ncn2[C@@H]1O[C@H](COP(=O)(O)O)[C@@H](OP(=O)(O)O)[C@H]1O [3′5′ ADP] was tested, and the “function as NOS activator” value [2, 7] was “only a very weak activator”.
With Nc1ncnc2c1ncn2[C@@H]1O[C@H](COP(=O)(O)OP(=O)(O)OP(=O)(O)O)[C@@H](O)[C@H]1O [ATP] the “activation of electron transfer by ATP” value ([4]; wild type eNOS, Tris buffer, absence of calmodulin) was “activation of electron transfer”, the “activation of electron transfer by ATP” value ([5]; wild type nNOS, Tris buffer, absence of calmodulin) was “activation of electron transfer” and the “inhibition of iNOS” value [6] was “INOS is inhibited; also recorded: inhibition of INOS”.
“G1074Y mutant: rat nNOS small insertion mutant, Gly 1074 replaced by Tyr” was tested, and the Nitrite production [1] was 186.2 nmoles/min/mg NOS.
